Test results published in patent US20110257206A1, “Combinations of Therapeutic Agents for Treating Cancer” (priority 2006, published 2011).

Assays:
A549 = experiment: Combination dose-matrix cell viability assay (CellTiter-Blue / alamar blue), synergy versus Loewe additivity, A549; type: cell-based; conditions: combination with Epothilone B; A549 cells; 72 hours; volume between measured and Loewe additive response surfaces; positive = synergistic
Experimental: The following Examples illustrate the combinations with epothilone B that show a syngeristic effect. All combinations were tested in three (3) distinct cell lines as part of this collaboration: A549, a model of non-small cell lung carcinoma; SKOV-3, a model of ovarian cancer; and SKMEL-28, a model of malignant melanoma.
Cells were cultured in T-175 flasks in complete medium (RPMI-1640, 10% FBS, 1% Penn/Strep) at 37° C. and 5% CO2. Cells were removed from the flask by brief treatment with 0.25% trypsin. Trypsin was inactivated with media and cell count was adjusted appropriately. Cells were then seeded into 384-well microtiter plates (35 μL) at 1500 (A549) or 3,000 (SKOV-3, SKMEL-28) cells/well using a multi-drop 16-24 hours prior to compound addition for general screening. […]
A solution of 5% CellTiter-Blue (Promega) viability dye in complete medium was dispensed to assay plates using a multi-drop or 384-well pipettor. […] Plates were allowed to cool to room temperature for one hour before reading fluorescence intensity at 590 nm after excitation at 540 nm in a Wallac Victor-V plate reader.
The measure of effect was the inhibition of cell viability using an alamar blue viability assay relative to the untreated level (vehicle alone). For untreated and treated levels U and T, a fractional inhibition I=1−T/U was calculated. […]

SKMEL28 = experiment: Combination dose-matrix cell viability assay (CellTiter-Blue / alamar blue), synergy versus Loewe additivity, SKMEL-28; type: cell-based; conditions: combination with Epothilone B; SKMEL28 cells; 72 hours; volume between measured and Loewe additive response surfaces; positive = synergistic
Excerpt: The inhibition ranges from 0% at the untreated level to 100% when T=0.
This effectively calculates a volume between the measured and Loewe additive response surfaces, weighted towards high inhibition and corrected for varying dilution factors.

Row | Compound | Synergy Score (A549) | Synergy Score (SKMEL28)
1 | O=C1C(SCCO)=C(SCCO)C(=O)c2ccccc21 [1,4-Naphthalenedione, 2,3-bis[(2-hydroxyethyl)thio]-(9CI)] | 1.233 | 
2 | Nc1nc(Cl)nc2c1ncn2C1CC(O)C(CO)O1 (stereo not drawn) [5-(6-amino-2-chloro-purin-9-yl)-2-(hydroxymethyl)oxolan-3-ol] |  | 0.999
3 | Butanedinitrile, bis[amino[(2-aminophenyl)thio]methylene]- (9CI) | 1.199 | 
